Each block holds one compound with its values, some of them ahead of it.
What was measured:
[1] = tested on: reaction to a standard surgical stimulus (skin incision); settings: average adult male at age 40 years; 1 atmosphere; cited from earlier work
[2] = Release into carrier gas, testing chamber 1 (60 ml glass jar, anaesthetic monitor); format: physicochemical; settings: for Sevo % @ 30 s / time to 0% Sevo/s: HPFP only, No N2 flow
Method: Specifically, a 60 ml glass jar fitted with septum, N2 inlet and 1 ml syringe (open to air). Typically tests used a 3 ml sample or equivalent with respect to anaesthetic content. Headspace concentrations were sampled from gas flow out (no recirculation) and measured with a standard anaesthetic monitor using a balloon to provide a nitrogen atmosphere or with or 2 L min^−1 N2 passed over or bubbled through sample;
The formulations described in Tables 1-4 were tested using testing chamber 1, the experimental set-up for which is described in FIG. 1a, by addition of an appropriate quantity of formulation to a 60 ml glass jar fitted with septum, N2 inlet and (needle free) 1 ml syringe (open to air) via a plastic tube from within which the outflow gas was continuously sampled and monitored for anaesthetic concentration. Typically a 3 ml sample was used, or an equivalent amount with respect to anaesthetic content. A balloon was used to provide a nitrogen atmosphere with no flow-through, or a continuous flow of nitrogen as a carrier gas was passed over or bubbled through the sample at a controlled flow-rate. Headspace fluorocarbon concentrations were sampled from gas outflow (no recirculation) and measured using a standard anaesthetic monitor (Capnomac Ultima, Datex Instrumentarium Inc., Heslinki, Finland), monitoring on either sevoflurane or isoflurane settings, depending on the anaesthetic in the formulation.

[3] = Gelation of liquid anaesthetics by gelators (heat-cool cycles, inversion); format: physicochemical
Method: […] The solubility of the gelator at room temperature was observed by visual inspection, and samples subjected to a series of heat-cool cycles (hot ˜60° C., cold ˜5° C.) until solubility of the gelator was complete (or ceased to improve) and a clear gel was formed on cooling. A final heating cycle was carried out and the samples allowed to cool slowly to room temperature (cooling rate uncontrolled). […] Further inspection was carried out after 24 hours, and no difference in results was observed. On storage, sealed samples remain gelled for at least 12 months.
A series of gelators were investigated with chain lengths […] corresponding to gelators G3-G8.

[4] = 1 wt % gelator after 2x heat-cool cycling
[5] = 1st value column (amount equivalent to J1)
[6] = 3rd value column (amount equivalent to J5)

SMILES: FC(F)OC(F)(F)C(F)Cl (stereo not shown) [enflurane]
MAC value of 1 (release level) [1]: 1.6 volume %

time of drop to zero anaesthetic concentration ([2]; 3 ml sevoflurane, 2 L min^−1): 15 to 16 min
plateau sevoflurane concentration in carrier gas ([2]; 3 ml sevoflurane, 2 L min^−1 carrier gas): ~13%
anaesthetic concentration in the carrier gas outflow stream ([2]; first 10 minutes, 3 ml sevoflurane, 2 L min^−1 through headspace): 13-15%
SMILES: FCOC(C(F)(F)F)C(F)(F)F [sevoflurane]
MAC value of 1 (release level) [1]: 2 volume %

SMILES: FC(F)OC(Cl)C(F)(F)F (stereo not shown) [isoflurane]
MAC value of 1 (release level) [1]: 1.2 volume %

gelation of sevoflurane at lower gelator concentration ([3]; 0.1 wt % gelator): without success
Gel state of anaesthetic: Desfluorane [3, 4]: Yes
Gel state of anaesthetic: Isoflurane [3, 4]: No^†
Gel state of anaesthetic: Sevoflurane [3, 4]: Good gels and Yes
gel state of isoflurane ([3]; 1.5 wt % gelator): partially gelled
SMILES: CC(C)OC(=O)[C@@H](O)[C@H](O)CCCCCCCC[C@@H](O)[C@H](O)C(=O)OC(C)C (racemic) [G4]
gel state of isoflurane ([3]; 2, 3, and 5 wt % gelator): gels and stable isoflurane gels were obtained

SMILES: FC(C(F)C(F)(F)C(F)(F)F)C(F)(F)F (stereo not shown) [HPFP, 2H, 3H-perfluoropentane]
Time to 0% sevoflurane/s ([2]; 2 l min−1 N2 Over sample, 3 ml HPFP): 220 s
sevoflurane % @ 30 s ([2]; 2 l min−1 N2 Over sample, 3 ml HPFP, monitored as sevoflurane): 1.6%
Time to 0% sevoflurane/s ([2]; 2 l min−1 N2 through sample, 3 ml HPFP): <220 s
Sevo % @ 30 s [2, 5]: 1.9%
time to 0% Sevo/s [2, 5]: 135 s
Sevo % @ 30 s ([2]; 2nd value column (equivalent formulation unclear)): 2.0%
time to 0% Sevo/s ([2]; 2nd value column): 140 s
Sevo % @ 30 s [2, 6]: 2.8%
time to 0% Sevo/s [2, 6]: 335 s
Sevo % @ 30 s ([2]; 4th value column (equivalent formulation unclear)): 2.9%
time to 0% Sevo/s ([2]; 4th value column): 900 s

SMILES: FC(F)OC(F)C(F)(F)F (stereo not shown) [desflurane]
MAC value of 1 (release level) [1]: 6 volume %

SMILES: FC(F)(F)C(Cl)Br (stereo not shown) [halothane]
MAC value of 1 (release level) [1]: 0.76 volume %
